Square brackets hold non-standard residues; d marks the D form. Peptide text beside a SMILES is read from it. * marks the point of attachment. Dolaproine = CO[C@@H]([C@@H]1CCCN1)[C@@H](C)C(=O)O; Dil = CC[C@H](C)[C@H](NC)[C@@H](CC(=O)O)OC; X1 = C[C@@H](N*)[C@@H](O)c1ccccc1; NMeV = CN[C@H](C(=O)O)C(C)C
How the values were obtained:
[1] = system: cell lines tested (Igrov1, A549 and others); experiment: In vitro cytotoxic activity of free drugs, various cell lines; type: cell-based; details: in vitro cytotoxicity studies
[2] = Body weight change in rats given free drugs; type: in vivo, rat; details: free drug (I): two doses (0.4, 1 mg/kg); free drug (II): 0.4 mg/kg
[3] = system: MES-SA/MX2 cells (P-glycoprotein); experiment: Free drug cell killing on PgP overexpressing MES-SA/MX2 cells with or without PgP inhibitor GF120918; type: cell-based
Excerpt: (§1) To evaluate if free drug (I) is specifically a substrate of P-glycoprotein (PgP), which is responsible for cisplatin-resistance in some of the ovarian cancer cell lines (Stordal et al. 2012. PLoS One 7(7)), the free drug cell killing activities were investigated on PgP overexpressing MES-SA/MX2 cell line and the parental MES-SA cells. The cell killing activity of free drug (I), free drug (II) and a control free drug (MMAE, designated “III”) on the PgP-overexpressing MES-SA/MX2 cells were reduced by different levels compared to their activity on parental MES-SA cells. The MES-SA/MX2 cells were also treated with PgP inhibitor GF120918 (5 μM) to further investigate if the observed cell killing reduction is contributed by the presence of PgP on the cell surface.

[4] = system: MC38-hFolRα tumors; experiment: MC38-hFolRα tumor model, combination with Avelumab; type: in vivo; details: ADC Molecule 4 10 or 15 mg/kg once IV; Avelumab q3dx3
Excerpt: Results are illustrated in FIGS. 24 and 25.

[5] = Pharmacokinetic profile of free drugs in Sprague-Dawley rats; type: in vivo, rat
Description: To assess the pharmacokinetic profile of free drug (I), female Sprague-Dawley rats (mean body weight 250 g) were given either a 0.4 mg/kg or 1 mg/kg dose by IV bolus administration (N═three animal per dose level) via an indwelling jugular vein catheter. Blood samples were collected at […], 1, 2, 8, 24, 32, 48, and 72 hour post-dose. Levels of free drug (I) and (II) were measured by LC-MS/MS and non-compartmental pharmacokinetic analysis was conducted using Phoenix WinNonlin Version 6.4 (Pharsight Corporation). The PK of free drug (I) could not be estimated due to the fact that concentrations of (I) increased from 2 to 8 hours and were undetectable thereafter.

[6] = system: MES-SA cells; experiment: Free drug cell killing on parental MES-SA cells; type: cell-based; details: Homo sapiens, MEA-SA, No GF120918
Excerpt: as §1

[7] = system: FOLR1-positive Igrov1 cells; experiment: Secondary antibody cell killing assay (anti-human Fc nanobody-hemiasterlin) on Igrov1 cells; type: cell-based; details: humanized 6D1 (2060) antibodies
Description: The internalization of the antibodies was evaluated by a secondary antibody cell killing assay on target positive cells. FOLR1-positive KB cells were obtained from ATCC, and FOLR1-positive Igrov1 cells were obtained from NIH. The cells were maintained in Ham's F-12: high glucose DMEM (50:50) (Corning, Cellgro-Mediatech) supplemented with 10% heat-inactivated fetal bovine serum (Corning, Cellgro-Mediatech, Manassas, Virginia), 1% Penicillin/Streptomycin (Corning, Cellgro-Mediatech, Manassas, Virginia) and 2 mmol/L-glutamax (Thermo Fisher Scientific, Waltham, Massachusetts). Adherent cells were washed twice with calcium and magnesium-free Hanks Balanced Salt Solution (HBSS), harvested with HYQ® TASE™ (Hyclone; Thermo Fisher Scientific, Waltham, Massachusetts) and counted by the Vi-CELL Cell Viability Analyzers (Beckman Coulter, Indianapolis, Indiana). A total of 625 cells were seeded in each well of a 384-well flat bottom white polystyrene plate. Lead antibodies were formulated at 4-fold starting concentration in the cell culture medium and filtered through Multi ScreenHTS 96-Well Filter Plates (Millipore; Billerica, Massachusetts). […] Assay plates were cultured at 37° C. in a CO2 incubator for 120 hrs before assay. For cell viability measurement, 30 μL of Cell Titer-Glog reagent (Promega Corp. Madison, WI) was added into each well, and plates were processed as per product instructions. Relative luminescence was measured on an ENVISION® plate reader (Perkin-Elmer; Waltham, MA). Relative luminescence readings were converted to percent viability using untreated cells as controls. Data was fitted with nonlinear regression analysis, using a log(inhibitor) vs. response-variable slope, 4 parameter fit with GraphPad Prism (GraphPad v 5.0, Software; San Diego, California). Data was expressed as relative cell viability (ATP content) % vs. dose of antibody.

[8] = target: T1, human FOLR1-H1S (Homo sapiens, UniProt P15328); experiment: Biacore affinity and kinetic binding analysis; details: humanized 6D1 (2060) antibodies
T1 construct: His (printed 'H1S', read as a misprint of HIS)
Description: Anti-Fc polyclonal antibodies were immobilized onto a CM5 chip (GE Life Sciences) using amine coupling chemistry (from Amine Coupling Kit, GE Life Sciences). The immobilization steps were carried out at a flow rate of 25 μL/min in 1×HBS-EP+buffer (GE Life Sciences; 10× Stock diluted before use). The sensor surfaces were activated for 7 min with a mixture of N-hydroxysuccinimide (NHS, 0.05 M) and 1-ethyl-3-(3-dimethylaminopropyl)-carbodiimide (EDC, 0.2 M). The anti-Fc polyclonal antibodies were injected over all 4 flow cells at a concentration of 25 μg/mL in 10 mM sodium acetate, pH 4.5, for 7 min. Ethanolamine (1 M, pH 8.5) was injected for 7 min to block any remaining activated groups. An average of 12,000 response units (RU) of capture antibody was immobilized on each flow cell.
Off-rate and kinetic binding experiments were performed at 25° C. using 1×HBS-EP+ buffer. Test and control antibodies were injected over the anti-Fc surface at concentrations of 5-10 μg/mL for 12 seconds at a flow rate of 10 μL/min on flow cells 2, 3 and 4, followed by a buffer wash for 30 seconds at the same flow rate. Kinetic characterization of antibody samples was carried out with a single concentration of antigen (for off-rate ranking) or a 1:2 dilution series of antigen (for kinetic characterization) and 1 injection of 0 nM antigen. […] Between each ligand capture and analyte binding cycle, regeneration was carried out using 2 injections of 10 mM glycine pH 2.0 for 30 seconds at 30 μL/min, followed by a 30 second buffer wash step.
The data were fit with the Biacore T200 Evaluation software, using a 1:1 Langmuir binding model. KD (affinity, nM) was determined as a ratio of the kinetic rate constants calculated from the fits of the association and dissociation phases.

[9] = MEA-SA/MX2, GF120918 (5 μM PgP inhibitor)

T1 sequence (P15328 25-234 limits assumed): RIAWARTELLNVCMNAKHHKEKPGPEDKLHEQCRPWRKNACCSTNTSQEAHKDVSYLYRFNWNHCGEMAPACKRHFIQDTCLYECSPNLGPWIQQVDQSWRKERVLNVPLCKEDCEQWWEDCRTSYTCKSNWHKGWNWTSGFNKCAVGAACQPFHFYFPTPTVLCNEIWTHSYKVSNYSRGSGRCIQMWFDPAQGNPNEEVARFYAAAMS

Molecule: COc1cc2cc(c1Cl)N(C)C(=O)C[C@H](OC(=O)[C@H](C)N(C)C(=O)CCC(C)(C)S)[C@]1(C)O[C@H]1[C@H](C)[C@@H]1C[C@@](O)(NC(=O)O1)[C@H](OC)/C=C/C=C(/C)C2 [free drug (II)]
- cytotoxic activity of released free drugs, comparison [1]: comparable cytotoxic activity
- effect on body weight [2]: progressive body weight loss
- EC50 [3, 9]: 1.7 nM
- EC50 ([3]; MEA-SA/MX2, No GF120918): 28 nM
- Span ([3]; MEA-SA/MX2, No GF120918): 100%

Molecule: Avelumab: PD-L1 inhibitor Avelumab (clinical grade) [reference compound]
- initial tumor response [4]: tumor stasis until approximately day 7

Molecule: CN[C@H](C(=O)N[C@H](C(=O)N(C)[C@H](/C=C(\C)C(=O)O)C(C)C)C(C)(C)C)C(C)(C)c1cccc(N)c1 [free drug (I)]
- cytotoxic activity of released free drugs, comparison [1]: comparable cytotoxic activity
- plasma level post dose ([5]; 0.4 or 1 mg/kg IV bolus): undetectable at 24 hours post dose
- PK of free drug (I) in rat vs. free drug (II) ([5]; rat): Free drug (I) has faster clearance
- effect on body weight [2]: did not have an effect on the body weight
- EC50 [3, 9]: 6.4 nM
- EC50 ([3]; MEA-SA/MX2, No GF120918): 50 nM
- Span ([3]; MEA-SA/MX2, No GF120918): 100%

Molecule: CC[C@H](C)[C@@H]([C@@H](CC(=O)N1CCC[C@H]1[C@H](OC)[C@@H](C)C(=O)N[C@H](C)[C@@H](O)c1ccccc1)OC)N(C)C(=O)[C@@H](NC(=O)[C@@H](NC)C(C)C)C(C)C [free drug (III), monomethyl auristatin E] (H-[NMeV]V[Dil][Dolaproine]-X1; N-terminus and C-terminus assumed)
- EC50 [3, 9]: 1 nM
- EC50 ([3]; MEA-SA/MX2, No GF120918): 111 nM
- EC50 [6]: 0.75 nM

B1: SRP2060-A06 (antibody, V domains shown)
VH: EVQLLESGGGLVQPGGSLRLSCAFSGFSLSTFGMGVGWVRQAPGKGLEWVGHIWWDDDKYYYPALKGRFTISKDNSKNTVYLQMNSLRAEDTAVYYCGRNHFPHYYGSSHWYFDVWGQGTTVTVSS
VL: DIQMTQSPSTLSASVGDRVTITCKASQDINSYLSWYQQKPGKAPKLLIYRANRLVDGVPSRFSGSGSGTEFTLTISSLQPDDFATYYCLQYDEFPYTFGGGTKVEIK
modifications: drug conjugate; Synthetic SRP2060-A06, VH; Synthetic H6D1-LC5, VL
- Igrov 2° Antibody Cell Killing, Nb-SC239 span [7]: 66%

B2: SRP2060-B01 (antibody, V domains shown)
VH: EVQLLESGGGLVQPGGSLRLSCALSGFSLSTFGMGVGWVRQATGKGLEWVSHIWWDDDKYYHPALKGRFTISKDNSKNTVHLQMNSLRAEDTAVYYCGRNHFPHYYGSSHWYFNVWGQGTTVTVSS
VL: DIQMTQSPSTLSASVGDRVTITCKASQDINSYLSWYQQKPGKAPKLLIYRANRLVDGVPSRFSGSGSGTEFTLTISSLQPDDFATYYCLQYDEFPYTFGGGTKVEIK
modifications: drug conjugate; Synthetic SRP2060-B01, VH; Synthetic H6D1-LC5, VL
- Igrov 2° Antibody Cell Killing, Nb-SC239 span [7]: 76%

B3: SRP2060-E10: affinity-matured humanized 6D1 antibody, VH SEQ ID NO 363, VL H6D1-LC4 (antibody, V domains shown)
VH: EVQLLESGGGLVQPGGSLRLSCAFSGFSLSTFGMGVGWVRQAPGKGLEWVSHIWWDDDKYYHPALKGRFTISKDNSKNTVYLQMNSLRAEDTAVYYCGRNHFPHYYGSSHWYFNVWGQGTTVTVSS
VL: EIVMTQSPATLSLSPGERATLSCKASQDINSYLSWYQQKPGQAPRLLIYRANRLVDGIPARFSGSGSGTDYTLTISSLEPEDFAVYYCLQYDEFPYTFGGGTKVEIK
modifications: drug conjugate; Synthetic SRP2060-E10, VH; Synthetic H6D1-LC4, VL
- Igrov 2° Antibody Cell Killing, Nb-SC239 span [7]: 68%
- Biacore kinetics ka [8]: 582000 M⁻¹ s⁻¹
- Biacore kinetics kd [8]: 0.0012 s⁻¹

B4: SRP2060-E05: affinity-matured humanized 6D1 antibody, VH SEQ ID NO 364, VL H6D1-LC4 (antibody, V domains shown)
VH: EVQLLESGGGLVQPGGSLRLSCAFSGFSLSTFGMGVGWVRQAPGKGLEWVSHIWWDDDKYYHPALKGRFTVSKDNSKNTVYLQMNSLRAEDTAVYYCGRNHFPHYYGSSHWYFNVWGQGTTVTVSS
VL: EIVMTQSPATLSLSPGERATLSCKASQDINSYLSWYQQKPGQAPRLLIYRANRLVDGIPARFSGSGSGTDYTLTISSLEPEDFAVYYCLQYDEFPYTFGGGTKVEIK
modifications: drug conjugate; Synthetic SRP2060-E05, VH; Synthetic H6D1-LC4, VL
- Igrov 2° Antibody Cell Killing, Nb-SC239 span [7]: 71%
- Biacore kinetics ka [8]: 541000 M⁻¹ s⁻¹
- Biacore kinetics kd [8]: 0.00158 s⁻¹

Source: patent US12071477B2, “Anti-folate receptor alpha antibody conjugated with hemiasterlins” (SUTRO BIOPHARMA, INC., priority 2017, dated 2024)
